In PMC10788937, “Chemical Catalysis Guides Structural Identification for the Major In Vivo Metabolite of the BET Inhibitor JQ1” (ACS Medicinal Chemistry Letters, 2024):

How the values were obtained:
[1] = Pharmacokinetic studies in mice (1:1 mixture, intraperitoneal); type: in vivo, mice (C57BL/6NJ); settings: for AUC(0-t) / CL/F / half-life at 24 h: C57BL/6NJ, mouse, plasma, ip, 50 mg/kg 1:1 mixture, intraperitoneal
Description: The observed improvement in male mice was not determined to be significant, but the gender differences are not unprecedented in human drug metabolism, as the clearance of CYP3A substrates occurs more rapidly by females than males.[35] Gender differences in hepatic CYP expression have been identified in mice, rats, and humans,[36] including a female-specific CYP3A family member in mice,[37] and circadian variations in mice can accentuate the sex differences in CYP3A isoform expression.[38] […] It is noteworthy that the relationship between AUC and half-life can be affected with no correlation due to influence on both by various factors such as target-mediated drug disposition, drug formulation, route of administration, metabolism, absorption, and elimination pathways.[39],[40] AUC0–t represents the cumulative effect, while t1/2 represents only the rate at which the drug is eliminated from the body. […]
time binding response was recorded using the instrument software and sensorgrams were analyzed using the QDAT software. The baseline subtraction, referencing, and double-referencing techniques were applied to obtain specific binding responses. Kinetic parameters were calculated by fitting sensograms to OneStep binding models for determining the dissociation rate constant (kd) for the highest concentration and constraining the lower concentrations to the determined value. All data was locally fitted to a simple 1:1 interaction model.
Pharmacokinetic studies in mice
Mouse studies were performed under protocols approved by the Institutional Animal Care and Use Committee of Baylor College of Medicine and guidelines established by the NIH Guide for the Care and Use of Laboratory Animals. Animals were housed under standard conditions of a 12-hour light/dark cycle in a vivarium with controlled ambient temperature (70˚ ± 2˚ and 20-70% relative humidity). Pharmacokinetic studies were performed using 8-12-week-old mice (C57BL/6NJ, female, n =4 and male n = 4)). Mice were administered 50 mg/kg of compounds (1:1 of mixtures of (+)-JQ1 and (+)-JQ1-D) via intraperitoneal injection to mice. Twenty µl of blood was collected via the tail vein at 0, 15, 30 minutes, 1, 2, 4, 8, and 24 hours post treatment. To 10 ul of plasma was added 25 ul of MeOH with internal standard. The resulting mixtures were vortexed and span at rcf 15,000 for 15 min and 5 ul of the supernatant were injected into the UHPLC-Q Exactive Orbitrap MS for analysis. The concentrations of tested compounds were calculated based on their corresponding standard curves. Pharmacokinetic parameters including half-time (t1/2), area under the plasma concentration–time curve during the period of observation (AUC0–t), clearance normalized by bioavailability (CL/F) were calculated on WinNonlin software (Certara, Princeton, NJ) by noncompartmental analysis.

[2] = cited from earlier work
[3] = in vitro
Experimental: (§1) The samples are collected at specific time-points (0, 5, 10, 20, 40, and 60 min. The reactions are terminated by adding equivalent volume of ice-cold MeOH and vortexed. The reaction mixtures are centrifuged at rcf 15,000 for 15 min. Five μL of the supernatant will be analyzed by UHPLC-Q Exactive Orbitrap MS (Thermo Fisher Scientific, San Jose, CA) equipped with 50 mm × 4.6 mm column (XDB C-18, Agilent Technologies, Santa Clara, CA). The column temperature is maintained at 40 °C. The flow rate of is at 0.3 mL/min with a 30% mobile phase (acetonitrile containing 0.1% formic acid). Q Exactive MS is operated in positive or negative mode with electrospray ionization. Ultrapure nitrogen is applied as the sheath (45 arbitrary unit), auxiliary (10 arbitrary unit), sweep (1.0 arbitrary unit) and the collision gas. The capillary gas temperature is set at 275 °C and the capillary voltage was set at 3.7 kV. MS data were acquired from 80 to 1200 Da in […]
(§2) The Surface Plasmon Resonance (SPR) experiment was conducted using a Pioneer FE SPR System (Sartorius) equipped with a SPR HisCap Sensor
(§3) Chip. The instrument was calibrated and validated prior to the experiment according to the manufacturer's instructions. The chip surface was activated with a mixture of N-hydroxysuccinimide (NHS), 50 mM, and N-ethyl-N'-(3-dimethylaminopropyl) carbodiimide (EDC), 200 mM, at a 20 µL/min flow rate for 5. minutes. Covalent attachment of his-BRDT to channel 1 was achieved by injecting 150 µL of protein at 10 mg/mL at […]. Channel 2 of the chip was used as a blank reference and unreacted functional groups of both channels were blocked using ethanolamine.
(§4) SPR running buffer consisted of 100 mM Tris-HCl, 200 mM NaCl, and 0.05% Tween-20. […]
(§5) closely mimics the buffer conditions and injected at 40µL/min using the OneStep injection system at 0.5, 5, and 50 µM concentrations. The real-

[4] = system: BRD4; settings: read-out: BRD4 IC50; ALPHAScreen, biotin-tagged (+)-JQ1 probe
[5] = molecular target: BRDT (Homo sapiens, UniProt Q58F21); type: binding; settings: SPR, his-BRDT; for Kd: read-out: BRDT binding Kd
Experimental: as §1, §2, §3, §4, §5

[6] = Isotopomeric ratios from the pharmacokinetic time course in mice; type: in vivo; settings: first time point

Compound	AUC(0-t) ([1]; female mice) [ng·h/mL]	CL/F ([1]; female mice) [mL/min/kg]	half-life at 24 h ([1]; female mice) [min]	AUC(0-t) ([1]; male mice) [ng·h/mL]	CL/F ([1]; male mice) [mL/min/kg]	half-life at 24 h ([1]; male mice) [min]	half-life at 1 h, 0.2 μM ([3]; human, microsomes) [min]	half-life at 1 h, 0.2 μM ([3]; mouse, microsomes) [min]	IC50 [4] [µM]	BRDT binding Kd [5]	Kd [5] [µM]	other results
Cc1sc2c(c1C)C(c1ccc(Cl)cc1)=N[C@@H](CC(=O)OC(C)(C)C)c1nnc(C)n1-2 [(+)-JQ1, reference compound]	[…]	[…]	116	[…]	[…]	202	[…]	[…]	[…]	–	–	in vivo half-life [2]: about an hour; half-life at 0.2 μM ([3]; human, microsomes): 7.9 min
[2H]C([2H])([2H])c1sc2c(c1C)C(c1ccc(Cl)cc1)=N[C@@H](CC(=O)OC(C)(C)C)c1nnc(C)n1-2 [(+)-JQ1-D]	[…]	16.5	[…]	94200	[…]	[…]	22.5	19.8	[…]	–	–	improvement of total exposure (AUC0–t) compared to (+)-JQ1 ([1]; female mice): 23%; improvement of total exposure (AUC0–t) compared to (+)-JQ1 ([1]; male mice): […]
Cc1c(CF)sc2c1C(c1ccc(Cl)cc1)=N[C@@H](CC(=O)OC(C)(C)C)c1nnc(C)n1-2 [(+)-JQ1-F1]	–	–	–	–	–	–	52	–	–	lost potency	0.722	–
Cc1c(C(F)F)sc2c1C(c1ccc(Cl)cc1)=N[C@@H](CC(=O)OC(C)(C)C)c1nnc(C)n1-2 [(+)-JQ1-F2]	–	–	–	–	–	–	125	–	–	lost potency	3.92	Human liver microsomal t1/2 ([3]; 0.1 mg/mL microsomal protein): substantially improved half-life
Cc1c(CO)sc2c1C(c1ccc(Cl)cc1)=N[C@@H](CC(=O)OC(C)(C)C)c1nnc(C)n1-2 [M1]	–	–	–	–	–	–	–	–	–	–	–	M1/M1D ratio ([6]; female mice): 2.095 ± 0.089; M1/M1D ratio ([6]; male mice): 1.799 ± 0.043
